This is an account of results in patent publication US5120735A, “Antifungal composition” (Kaken Pharmaceutical Co., Ltd., priority 1987, dated 1992).

Where two headings read alike, the source gives them in different places.

The test system of data set [1] is Candida albicans MTU 12021. As to the kind of experiment: Agar dilution MIC, single and combined use. Conditions: for MIC: Candida albicans, read-out: Minimum Inhibitory Concentration (MIC); for Minimum Inhibitory Concentration (MIC) of the agent combined with Compound 1: combined with Compound 1 at 100 μg/ml; for Minimum Inhibitory Concentration (MIC) of miconazole in combination with the arylmethylamine compound: MIC is that of miconazole, compound at a concentration of 100 mg/ml (so in the source); for synergistic effects of combined use with Compound 1: agent combined with Compound 1, Table 1. In kind it is cell-based. Here is the method:
(1) The effects of the combined use of Compound 1 with various imidazole antifungal agents against Candida albicans MTU 12021 strain were examined as follows. […] Then, distilled water containing 0.1% by weight of Tween 80 was added thereto to obtain drug solutions having a concentration of from 1 to 1,000 μg/ml.
(§1) 1 ml of each drug solution diluted twice was introduced into a sterilized Petri dish, and 8 ml of Sabouraud agar medium was added to prepare a agar plate. Thus, a series of agar plates for the combinations having various concentrations were prepared.
(§2) Candida albicans MTU 12021 strain cultured on a Sabouraud agar medium for 24 hours, was suspended in a saline, and a cells suspension having a concentration of 2×10^6 spores/ml was prepared by counting the number of spores by a hemacytometer. Then, 50 μl of the cells suspension was inoculated to the above agar plates by means of a microplanter (manufactured by Sakuma Seisakusho). The inoculated agar plates were cultured at 37° C. for 48 hours, whereupon the presence or absence of the growth of the strain was examined.
(§3) Culture medium: Sabouraud agar medium
(§4) Culturing condition: 37° C. for 48 hours
(§5) Strain used: Candida albicans MTU 12021
For orientation: In agar dilution, organisms are placed on agar that contains the substance at set levels.

In a further data set the test system is ICR male mice. As to the kind of experiment: Acute toxicity, oral, mice. Format: in vivo. The settings on record: up to 5,000 mg/kg, ICR male mice of 5 weeks old. The text has this:
To examine the acute toxicity of the arylmethylamine antifungal agents used in the composition of the present invention, Compounds 1 and 2 were selected, and they were, respectively, suspended in 0.5% methyl cellulose and orally administered to ICR male mice of 5 weeks old (body weight: 26-28 g) at a dose corresponding to the body weight.

Data set [2] has as its system Candida albicans MTU 12021. Briefly: Disk method (growth inhibition ring). In kind it is cell-based. The settings on record: for effects of combined use with miconazole or ketoconazole: same disk method as Example 1(3). Here is the method: (3) The effects of the combined use of Compound 1 with miconazole or ketoconazole were examined by a disk method.
Candida albicans MTU 12021 stain was mixed with a Sabouraud agar medium to have a concentration of 5×10^4 spores/ml, and 10 ml thereof was poured into a sterilized Petri dish to obtain an inoculated agar plate.
50 mg of each of Compound 1, miconazole and ketoconazole was impregnated to a disk (Toyo Filter paper of 8 mm in diameter), and the disk was placed on the inoculated agar plate, followed by culturing at 37° C. for 96 hours, whereupon the synergistic effects were evaluated based on the growth inhibition ring thereby appeared.

For data set [3], the system named is Candida albicans MTU 12021. Briefly: Checker board method, combined use of Compound 1 with miconazole or ketoconazole. On growth: key: +: Growth observed; -: No growth observed. In kind it is cell-based. The settings on record: for synergistic effects of combined use with Compound 1 (checker board): agent combined with Compound 1, Tables 2 and 3; for Growth: Compound 1 0. How it is done: as §1, §2, §3, §4, §5
The mark [4] stands for this setting: MTU12021, single use, Sabouraud agar, 37° C., 48 hours.
[5] abbreviates: Sabouraud agar, 37° C., 48 hours.

Consider `C[C@@H]1[C@H](O)[C@@H](C)/C=C/C=C/C=C/C=C/C=C/C=C/C=C/[C@H](O[C@@H]2O[C@H](C)[C@@H](O)[C@H](N)[C@@H]2O)C[C@@H]2O[C@](O)(C[C@@H](O)C[C@@H](O)[C@H](O)CC[C@@H](O)C[C@@H](O)CC(=O)O[C@H]1C)C[C@H](O)[C@H]2C(=O)O` [Amphotericin B], for which, in data set [1] (setting [4]), the MIC turned out to be 3.13 µg/mL. In data set [1] (setting [5]), the “Minimum Inhibitory Concentration (MIC) of the agent combined with Compound 1” value was 3.13 µg/mL.

With `CCC(C)(C)c1ccc(CN(C)Cc2cccc3ccccc23)cc1` [Compound 2, N-methyl-N-4-tert-pentylbenzyl-1-naphthalenemethylamine], in data set [1] (setting [4]), the MIC was more than 100 µg/mL. Further, the “Minimum Inhibitory Concentration (MIC) of miconazole in combination with the arylmethylamine compound” value in data set [1] stood at 3.13 µg/mL. For the same molecule, in the data set on ICR male mice, the death result was “no instance of death”.

Regarding `CN(Cc1ccc(C(C)(C)C)cc1)Cc1ccc(F)c2ccccc12` [Compound 3, N-4-tert-butylbenzyl-N-methyl-4-fluoro-1-naphthalenemethylamine], the MIC in data set [1] (setting [4]) was more than 100 µg/mL. Further, the “Minimum Inhibitory Concentration (MIC) of miconazole in combination with the arylmethylamine compound” value in data set [1] was 6.25 µg/mL.

As to `CN(Cc1ccc(C(C)(C)C)cc1)Cc1csc2ccccc12` [Compound 4, N-4-tert-butylbenzyl-N-methyl-3-benzo[b]thiophenemethylamine], the MIC in data set [1] (setting [4]) is more than 100 µg/mL. Besides, in data set [1], the “Minimum Inhibitory Concentration (MIC) of miconazole in combination with the arylmethylamine compound” value stood at 1.56 µg/mL.

As to `CN(Cc1ccc(C(C)(C)C)s1)Cc1cccc2ccccc12` [Compound 5, N-methyl-N-(1-naphthalenemethyl)-5-tert-butyl-2-thiophenemethylamine], in data set [1] (setting [4]), the MIC is more than 100 µg/mL. Besides, the “Minimum Inhibitory Concentration (MIC) of miconazole in combination with the arylmethylamine compound” value in data set [1] is 3.13 µg/mL.

`CN(C/C=C/c1ccccc1)Cc1cccc2ccccc12` [Compound 6, (E)-N-cinnamyl-N-methyl-1-naphthalenemethylamine]: in data set [1] (setting [4]), the MIC is more than 100 µg/mL. For the same molecule, the “Minimum Inhibitory Concentration (MIC) of miconazole in combination with the arylmethylamine compound” value in data set [1] amounted to 1.56 µg/mL. Also, the “effects of combined use with miconazole or ketoconazole” value in data set [2] is reported as “remarkable synergistic effects”.

Regarding `CN(C/C=C/C#CC(C)(C)C)Cc1cccc2ccccc12` [Compound 7, (E)-N-[6,6-dimethyl-2-hepten-4-ynyl)-N-methyl-1-naphthalenemethylamine], the MIC in data set [1] (setting [4]) is more than 100 µg/mL. Besides, in data set [1], the “Minimum Inhibitory Concentration (MIC) of miconazole in combination with the arylmethylamine compound” value is 0.78 µg/mL. The “effects of combined use with miconazole or ketoconazole” value in data set [2] is “remarkable synergistic effects”.

Consider `Clc1cc(Cl)c(OCC#CI)cc1Cl` [Haloprozin], for which the MIC in data set [1] (setting [4]) was more than 100 µg/mL. Moreover, in data set [1] (setting [5]), the “Minimum Inhibitory Concentration (MIC) of the agent combined with Compound 1” value was more than 100 µg/mL.

For `O=C(CCCCCCCCC#CI)Oc1ccccc1` [KP-4249], in data set [1] (setting [4]), the MIC was found to be 100 µg/mL. The “Minimum Inhibitory Concentration (MIC) of the agent combined with Compound 1” value in data set [1] (setting [5]) amounted to 100 µg/mL.

`O=[N+]([O-])c1c(Cl)cccc1-c1c[nH]cc1Cl` [Pyrrolnitrin]: the MIC in data set [1] (setting [4]) came to 50 µg/mL. The “Minimum Inhibitory Concentration (MIC) of the agent combined with Compound 1” value in data set [1] (setting [5]) was determined as 50 µg/mL.

As to `Cc1cc(O)c2c(c1)O[C@@]1(C)CC[C@H]3C(C)(C)CCC[C@]34CO[C@@H]2[C@H]41` [Siccanine], in data set [1] (setting [4]), the MIC was determined as 25 µg/mL. Also, the “Minimum Inhibitory Concentration (MIC) of the agent combined with Compound 1” value in data set [1] (setting [5]) stood at 25 µg/mL.

In the case of `Clc1ccccc1C(c1ccccc1)(c1ccccc1)n1ccnc1` [clotrimazole], the MIC in data set [1] (MTU12021, 48 h) was 12.5 µg/mL. Also, the “synergistic effects of combined use with Compound 1” value in data set [1] was “remarkable synergistic effects”. In data set [1] (setting [5]), the “Minimum Inhibitory Concentration (MIC) of the agent combined with Compound 1” value was found to be 3.13 µg/mL.

For `Clc1ccc(COC(Cn2ccnc2)c2ccc(Cl)cc2Cl)cc1` (centres unmarked) [econazole], the MIC in data set [1] (setting [4]) worked out at 25 µg/mL. The “synergistic effects of combined use with Compound 1” value in data set [1] is “remarkable synergistic effects”. In data set [1] (setting [5]), the “Minimum Inhibitory Concentration (MIC) of the agent combined with Compound 1” value turned out to be 1.56 µg/mL.

`Clc1ccc(C(Cn2ccnc2)OCc2c(Cl)cccc2Cl)c(Cl)c1` (centres unmarked) [isoconazole]: the MIC in data set [1] (setting [4]) was 25 µg/mL. For the same molecule, the “synergistic effects of combined use with Compound 1” value in data set [1] was “remarkable synergistic effects”. Also, the “Minimum Inhibitory Concentration (MIC) of the agent combined with Compound 1” value in data set [1] (setting [5]) is 1.56 µg/mL.

On to `CC(=O)N1CCN(c2ccc(OCC3COC(Cn4ccnc4)(c4ccc(Cl)cc4Cl)O3)cc2)CC1` (centres unmarked) [ketoconazole, reference compound], for which, in data set [3], the “synergistic effects of combined use with Compound 1 (checker board)” value was “Remarkable syntergistic effects”. For the same molecule, the Growth result in data set [3] (ketoconazole 0.1 μg/ml), in data set [3] (ketoconazole 0.2 μg/ml), in data set [3] (ketoconazole 0.39 μg/ml), in data set [3] (ketoconazole 0.78 μg/ml), in data set [3] (ketoconazole 1.56 μg/ml) and in data set [3] (ketoconazole 3.13 μg/ml) was “+” in each case. Also, the Growth entry in data set [3] (ketoconazole 12.5 μg/ml) was “+”; in data set [3] (ketoconazole 25 μg/ml) it was “-”; in data set [3] (ketoconazole 50 μg/ml), “-”; in data set [3] (ketoconazole 100 μg/ml), “-”.

Turning to `Clc1ccc(COC(Cn2ccnc2)c2ccc(Cl)cc2Cl)c(Cl)c1` (centres unmarked) [miconazole, reference compound], the MIC in data set [1] (MTU12021, 48 h) was 25 µg/mL. For the same molecule, the “synergistic effects of combined use with Compound 1” value in data set [1] is reported as “remarkable synergistic effects”. Besides, the “Minimum Inhibitory Concentration (MIC) of the agent combined with Compound 1” value in data set [1] (setting [5]) amounted to 1.56 µg/mL. The “synergistic effects of combined use with Compound 1 (checker board)” value in data set [3] was “Remarkable syntergistic effects”. Besides, the Growth entry in data set [3] (miconazole 0.39 μg/ml), in data set [3] (miconazole 0.78 μg/ml), in data set [3] (miconazole 1.56 μg/ml), in data set [3] (miconazole 3.13 μg/ml), in data set [3] (miconazole 12.5 μg/ml) and in data set [3] (miconazole 25 μg/ml) was “+” each time. The Growth entry in data set [3] (miconazole 50 μg/ml) and in data set [3] (miconazole 100 μg/ml) was “-” throughout. In data set [2] (50 mg per disk (so in the source), 37° C., 96 hours, FIG. 2), the “growth inhibition ring, disk alone” value was “a complete inhibitory ring with a small diameter and an incomplete inhibitory ring with a large diameter”.

`Clc1ccc(CO/N=C(\Cn2ccnc2)c2ccc(Cl)cc2Cl)c(Cl)c1` [oxiconazole]: the “synergistic effects of combined use with Compound 1” value in data set [1] is on record as “remarkable synergistic effects”.
